target: human GLP1R (Homo sapiens (Human), UniProt P43220); test: In vitro cAMP signal activation in human GLP1R stably-expressing cell line (hGLP1R-HEK293); format: cell-based; details: cAMP concentration in hGLP1R-HEK293; 100% = 1 nM human GLP-1 (7-37)
Sequence (P43220 24-463): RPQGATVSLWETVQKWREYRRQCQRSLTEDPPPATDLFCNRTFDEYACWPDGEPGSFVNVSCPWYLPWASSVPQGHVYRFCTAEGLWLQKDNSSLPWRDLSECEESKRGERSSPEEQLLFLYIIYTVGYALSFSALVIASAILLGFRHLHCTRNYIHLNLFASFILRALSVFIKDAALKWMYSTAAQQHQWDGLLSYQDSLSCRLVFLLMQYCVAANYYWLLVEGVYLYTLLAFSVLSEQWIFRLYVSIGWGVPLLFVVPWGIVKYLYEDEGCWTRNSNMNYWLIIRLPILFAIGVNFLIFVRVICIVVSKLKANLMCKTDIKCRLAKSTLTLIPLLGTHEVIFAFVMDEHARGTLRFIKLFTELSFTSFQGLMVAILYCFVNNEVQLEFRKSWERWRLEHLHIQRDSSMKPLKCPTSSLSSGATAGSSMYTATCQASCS

| SMILES | EC50 |
| --- | --- |
| COc1nccc(-c2ccc3c(c2)cc(C(=O)N2CCc4nn(-c5cc(C)c(F)c(C)c5)c(-n5ccn(-c6ccc7c(cnn7CC(C)(C)O)c6)c5=O)c4[C@@H]2C)n3[C@@]2(c3noc(=O)[nH]3)C[C@@H]2C)c1C [Example 13, 3-[(1S,2S)-1-[2-[(4S)-2-(4-fluoro-3,5-dimethylphenyl)-3-[3-[1-(2-hydroxy-2-methylpropyl)indazol-5-yl]-2-oxoimidazol-1-yl]-4-methyl-6,7-dihydro-4H-pyrazolo[4,3-c]pyridine-5-carbonyl]-5-(2-methoxy-3-methylpyridin-4-yl)indol-1-yl]-2-methylcyclopropyl]-4H-1,2,4-oxadiazol-5-one] | 3.7 nM |
| CCc1nccc(-c2ccc3c(c2)cc(C(=O)N2CCc4nn(-c5cc(C)c(F)c(C)c5)c(-n5ccn(-c6ccc(OC)c(F)c6)c5=O)c4C2)n3[C@@]2(c3noc(=O)[nH]3)C[C@@H]2C)c1C [Example 4] | 12 nM |
| Cc1cc(-n2nc3c(c2-n2ccn(-c4ccc5c(cnn5C)c4Cl)c2=O)[C@H](C)N(C(=O)c2cc4cc([C@H]5CCOC(C)(C)C5)ccc4n2[C@@]2(c4noc(=O)[nH]4)C[C@@H]2C)CC3)ccc1F [Example 49, 3-[(1S,2S)-1-[2-[(4S)-3-[3-(4-chloro-1-methylindazol-5-yl)-2-oxoimidazol-1-yl]-2-(4-fluoro-3-methylphenyl)-4-methyl-6,7-dihydro-4H-pyrazolo[4,3-c]pyridine-5-carbonyl]-5-[(4S)-2,2-dimethyloxan-4-yl]indol-1-yl]-2-methylcyclopropyl]-4H-1,2,4-oxadiazol-5-one] | 3.8 nM |
| Cc1cc(-n2nc3c(c2-n2ccn(-c4ccc5c(cnn5C)c4)c2=O)[C@H](C)N(C(=O)c2cc4cc([C@H]5CCOC(C)(C)C5)ccc4n2[C@@]2(c4noc(=O)[nH]4)C[C@@H]2C)CC3)ccc1F [Example 50, 3-[(1S,2S)-1-[5-[(4S)-2,2-dimethyloxan-4-yl]-2-[(4S)-2-(4-fluoro-3-methylphenyl)-4-methyl-3-[3-(1-methylindazol-5-yl)-2-oxoimidazol-1-yl]-6,7-dihydro-4H-pyrazolo[4,3-c]pyridine-5-carbonyl]indol-1-yl]-2-methylcyclopropyl]-4H-1,2,4-oxadiazol-5-one] | 2.9 nM |
| CCc1nccc(-c2ccc3c(c2)cc(C(=O)N2CCc4nn(-c5cc(C)c(F)c(C)c5)c(-n5ccn(-c6ccc7c(C)nn(C)c7c6)c5=O)c4C2)n3[C@@]2(c3noc(=O)[nH]3)C[C@@H]2C)c1C [Example 5, 3-[(1S,2S)-1-[2-[3-[3-(1,3-dimethylindazol-6-yl)-2-oxoimidazol-1-yl]-2-(4-fluoro-3,5-dimethylphenyl)-6,7-dihydro-4H-pyrazolo[4,3-c]pyridine-5-carbonyl]-5-(2-ethyl-3-methylpyridin-4-yl)indol-1-yl]-2-methylcyclopropyl]-4H-1,2,4-oxadiazol-5-one] | 6.1 nM |
| Cc1cc(-n2nc3c(c2-n2ccn(-c4ccc5c(cnn5C)c4)c2=O)CN(C(=O)c2cc4cc(C5CCOCC5)ccc4n2[C@@]2(c4noc(=O)[nH]4)C[C@@H]2CO)CC3)cc(C)c1F [compound 79, 3-[(1S,2S)-1-[2-[2-(4-fluoro-3,5-dimethylphenyl)-3-[3-(1-methylindazol-5-yl)-2-oxoimidazol-1-yl]-6,7-dihydro-4H-pyrazolo[4,3-c]pyridine-5-carbonyl]-5-(oxan-4-yl)indol-1-yl]-2-(hydroxymethyl)cyclopropyl]-4H-1,2,4-oxadiazol-5-one] | 2.4 nM |
| Cc1cc(-n2nc3c(c2-n2ccn(-c4ccc5c(cnn5CC(F)(F)F)c4F)c2=O)[C@H](C)N(C(=O)c2cc4cc([C@H]5CCOC(C)(C)C5)ccc4n2[C@@]2(c4noc(=O)[nH]4)C[C@@H]2C)CC3)cc(C)c1F [Example 35, 3-[(1S,2S)-1-[5-[(4S)-2,2-dimethyloxan-4-yl]-2-[(4S)-2-(4-fluoro-3,5-dimethylphenyl)-3-[3-[4-fluoro-1-(2,2,2-trifluoroethyl)indazol-5-yl]-2-oxoimidazol-1-yl]-4-methyl-6,7-dihydro-4H-pyrazolo[4,3-c]pyridine-5-carbonyl]indol-1-yl]-2-methylcyclopropyl]-4H-1,2,4-oxadiazol-5-one] | 3.2 nM |
| CCc1nccc(-c2ccc3c(c2)cc(C(=O)N2CCc4nn(-c5cc(C)c(F)c(C)c5)c(-n5ccn(-c6ccc7c(cnn7C)c6)c5=O)c4[C@@H]2C)n3[C@@]2(c3noc(=O)[nH]3)C[C@@H]2C)c1C [compound 73, 3-[(1S,2S)-1-[5-(2-ethyl-3-methylpyridin-4-yl)-2-[(4S)-2-(4-fluoro-3,5-dimethylphenyl)-4-methyl-3-[3-(1-methylindazol-5-yl)-2-oxoimidazol-1-yl]-6,7-dihydro-4H-pyrazolo[4,3-c]pyridine-5-carbonyl]indol-1-yl]-2-methylcyclopropyl]-4H-1,2,4-oxadiazol-5-one] | 2.5 nM |
| Cc1cc(-n2nc3c(c2-n2ccn(-c4ccc5c(cnn5CC(F)(F)F)c4F)c2=O)[C@H](C)N(C(=O)c2cc4cc(C5CCOCC5)ccc4n2[C@@]2(c4noc(=O)[nH]4)C[C@@H]2C)CC3)ccc1F [Example 46, 3-[(1S,2S)-1-[2-[(4S)-2-(4-fluoro-3-methylphenyl)-3-[3-[4-fluoro-1-(2,2,2-trifluoroethyl)indazol-5-yl]-2-oxoimidazol-1-yl]-4-methyl-6,7-dihydro-4H-pyrazolo[4,3-c]pyridine-5-carbonyl]-5-(oxan-4-yl)indol-1-yl]-2-methylcyclopropyl]-4H-1,2,4-oxadiazol-5-one] | 3.3 nM |
| Cc1cc(-n2nc3c(c2-n2ccn(-c4cc5cnn(C)c5cc4F)c2=O)[C@H](C)N(C(=O)c2cc4cc(C5CCOCC5)ccc4n2[C@@]2(c4noc(=O)[nH]4)C[C@@H]2C)CC3)cc(C)c1F [Example 27, 3-[(1S,2S)-1-[2-[(4S)-2-(4-fluoro-3,5-dimethylphenyl)-3-[3-(6-fluoro-1-methylindazol-5-yl)-2-oxoimidazol-1-yl]-4-methyl-6,7-dihydro-4H-pyrazolo[4,3-c]pyridine-5-carbonyl]-5-(oxan-4-yl)indol-1-yl]-2-methylcyclopropyl]-4H-1,2,4-oxadiazol-5-one] | 2.3 nM |

Stronger by EC50, values ahead:

| EC50 | SMILES |
| --- | --- |
| 2.2 nM | Cc1cc(-n2nc3c(c2-n2ccn(-c4ccc5c(cnn5C)c4)c2=O)[C@H](C)N(C(=O)c2cc4cc(-c5ccnc(N(C)C)c5C)ccc4n2[C@@]2(c4noc(=O)[nH]4)C[C@@H]2C)CC3)cc(C)c1F [Example 15, 3-[(1S,2S)-1-[5-[2-(dimethylamino)-3-methylpyridin-4-yl]-2-[(4S)-2-(4-fluoro-3,5-dimethylphenyl)-4-methyl-3-[3-(1-methylindazol-5-yl)-2-oxoimidazol-1-yl]-6,7-dihydro-4H-pyrazolo[4,3-c]pyridine-5-carbonyl]indol-1-yl]-2-methylcyclopropyl]-4H-1,2,4-oxadiazol-5-one] |
| 2.1 nM | COCCn1ncc2c(F)c(-n3ccn(-c4c5c(nn4-c4cc(C)c(F)c(C)c4)CCN(C(=O)c4cc6cc([C@H]7CCOC(C)(C)C7)ccc6n4[C@@]4(c6noc(=O)[nH]6)C[C@@H]4C)[C@H]5C)c3=O)ccc21 [Example 36, 3-[(1S,2S)-1-[5-[(4S)-2,2-dimethyloxan-4-yl]-2-[(4S)-2-(4-fluoro-3,5-dimethylphenyl)-3-[3-[4-fluoro-1-(2-methoxyethyl)indazol-5-yl]-2-oxoimidazol-1-yl]-4-methyl-6,7-dihydro-4H-pyrazolo[4,3-c]pyridine-5-carbonyl]indol-1-yl]-2-methylcyclopropyl]-4H-1,2,4-oxadiazol-5-one] |
| 2 nM | COCCn1ncc2c(F)c(-n3ccn(-c4c5c(nn4-c4ccc(F)c(C)c4)CCN(C(=O)c4cc6cc(C7CCOCC7)ccc6n4[C@@]4(c6noc(=O)[nH]6)C[C@@H]4C)[C@H]5C)c3=O)ccc21 [Example 47, 3-[(1S,2S)-1-[2-[(4S)-3-[3-[4-fluoro-1-(2-methoxyethyl)indazol-5-yl]-2-oxoimidazol-1-yl]-2-(4-fluoro-3-methylphenyl)-4-methyl-6,7-dihydro-4H-pyrazolo[4,3-c]pyridine-5-carbonyl]-5-(oxan-4-yl)indol-1-yl]-2-methylcyclopropyl]-4H-1,2,4-oxadiazol-5-one] |
| 1.7 nM | Cc1cc(-n2nc3c(c2-n2ccn(-c4ccc5c(cnn5CC(C)(C)O)c4F)c2=O)[C@H](C)N(C(=O)c2cc4cc([C@H]5CCOC(C)(C)C5)ccc4n2[C@@]2(c4noc(=O)[nH]4)C[C@@H]2C)CC3)cc(C)c1F [Example 38, 3-[(1S,2S)-1-[5-[(4S)-2,2-dimethyloxan-4-yl]-2-[(4S)-2-(4-fluoro-3,5-dimethylphenyl)-3-[3-[4-fluoro-1-(2-hydroxy-2-methylpropyl)indazol-5-yl]-2-oxoimidazol-1-yl]-4-methyl-6,7-dihydro-4H-pyrazolo[4,3-c]pyridine-5-carbonyl]indol-1-yl]-2-methylcyclopropyl]-4H-1,2,4-oxadiazol-5-one] |
| 1.6 nM | COCCn1c(=O)n(C)c2cc(-n3ccn(-c4c5c(nn4-c4cc(C)c(F)c(C)c4)CCN(C(=O)c4cc6cc(C7CCOC(C)(C)C7)ccc6n4[C@@]4(c6noc(=O)[nH]6)C[C@@H]4C)[C@H]5C)c3=O)ccc21 (stereo in doubt) [Example 33, 3-[(1S,2S)-1-[5-[(4S)-2,2-dimethyloxan-4-yl]-2-[(4S)-2-(4-fluoro-3,5-dimethylphenyl)-3-[3-[1-(2-methoxyethyl)-3-methyl-2-oxobenzoimidazol-5-yl]-2-oxoimidazol-1-yl]-4-methyl-6,7-dihydro-4H-pyrazolo[4,3-c]pyridine-5-carbonyl]indol-1-yl]-2-methylcyclopropyl]-4H-1,2,4-oxadiazol-5-one] |
| 1.4 nM | CC[C@H]1C[C@@H](c2ccc3c(c2)cc(C(=O)N2CCc4nn(-c5cc(C)c(F)c(C)c5)c(-n5ccn(-c6ccc7c(cnn7C)c6)c5=O)c4C2)n3[C@@]2(c3noc(=O)[nH]3)C[C@@H]2C)CCO1 [compound 77] |
| 1.3 nM | COCCn1ncc2cc(-n3ccn(-c4c5c(nn4-c4cc(C)c(F)c(C)c4)CCN(C(=O)c4cc6cc([C@H]7CCOC(C)(C)C7)ccc6n4[C@@]4(c6noc(=O)[nH]6)C[C@@H]4C)[C@H]5C)c3=O)c(F)cc21 [compound 71, 3-[(1S,2S)-1-[5-[(4S)-2,2-dimethyloxan-4-yl]-2-[(4S)-2-(4-fluoro-3,5-dimethylphenyl)-3-[3-[6-fluoro-1-(2-methoxyethyl)indazol-5-yl]-2-oxoimidazol-1-yl]-4-methyl-6,7-dihydro-4H-pyrazolo[4,3-c]pyridine-5-carbonyl]indol-1-yl]-2-methylcyclopropyl]-4H-1,2,4-oxadiazol-5-one] |

From patent publication US10858356B2, “Pyrazolopyridine derivative having GLP-1 receptor agonist effect” (Chugai Seiyaku Kabushiki Kaisha, priority 2016, dated 2020)
